pEC50: −log10 of the molar value. Activity calls are given as the source filed them. The calls are words filed in the database; no cut-off is given here.
Experiments:
HT-22 [1] = experiment: Neuroprotective activity in mouse HT22 cells assessed as protection against glutamate-induced toxicity at 0.5 to 1 uM after 24 hrs by MTT assay relative to control; assay type: functional
HT-22 [2] = experiment: Neuroprotective activity in mouse HT22 cells assessed as protection against glutamate-induced toxicity after 24 hrs by MTT assay; assay type: functional, cell-based; details: HT-22, 24 h
HT-22 [3] = experiment: Inhibition of glutamate-induced decrease in GSH level in mouse HT22 cells at 1 uM after 24 hrs; assay type: functional, cell-based
[4] = Cytotoxicity against mouse hippocampal HT22 cells at 1 uM after 24 hrs by MTT assay; assay type: cell-based, Hippocampus; details: ht-22, 24 h
HT-22 [5] = experiment: Neuroprotective activity in mouse HT22 cells assessed as protection against glutamate-induced toxicity at 1 uM after 24 hrs by MTT assay in presence of GW-9662; assay type: functional, cell-based

Compound: Oc1ccc(CN(Cc2cccs2)Cc2ccc(O)c3ncccc23)c2cccnc12
- %max (HT-22 [1]): 97%
- pEC50 (HT-22 [2]): 6.42
- Activity (HT-22 [3]): Active
- Activity [4]: 34%
- Activity (HT-22 [5]): inactive

Compound: Cc1ccc(CN(Cc2ccc(O)c3ncccc23)Cc2ccc(O)c3ncccc23)cc1
- %max (HT-22 [1]): 100%
- pEC50 (HT-22 [2]): 6.90
- Activity (HT-22 [3]): Active
- Activity [4]: 39.4%
- Activity (HT-22 [5]): inactive

Compound: Oc1ccc(CN(Cc2cccc(C(F)(F)F)c2)Cc2ccc(O)c3ncccc23)c2cccnc12
- %max (HT-22 [1]): 99%
- pEC50 (HT-22 [2]): 6.77
- Activity (HT-22 [3]): Active
- Activity [4]: 40.7%
- Activity (HT-22 [5]): inactive

Compound: O=C(Nc1ccccc1)c1cc([N+](=O)[O-])ccc1Cl
- Activity (HT-22 [5]): inactive

Compound: COc1cc(/C=C/c2cc(/C=C/c3ccc(O)c(OC)c3)n(-c3ccccc3)n2)ccc1O
- Activity (HT-22 [5]): Active

Compound: Oc1ccc(CN(Cc2ccc(C(F)(F)F)cc2)Cc2ccc(O)c3ncccc23)c2cccnc12
- %max (HT-22 [1]): 100%
- pEC50 (HT-22 [2]): 6.21
- Activity (HT-22 [3]): Active
- Activity [4]: 33.7%
- Activity (HT-22 [5]): inactive

Compound: Cc1c(C)c2c(c(C)c1O)CCC(C)(COc1ccc(CC3SC(=O)NC3=O)cc1)O2 (stereo not drawn)
- Activity (HT-22 [3]): inactive

Reference: ChEMBL document CHEMBL1287699, “N,N-Bis-(8-hydroxyquinoline-5-yl methyl)-benzyl substituted amines (HQNBA): peroxisome proliferator-activated receptor (PPAR-γ) agonists with neuroprotective properties” (Bioorg Med Chem Lett, 2010)
